molecular target: T1, human orexin type 2 receptor (Homo sapiens, UniProt O43614); assay: Measurement of orexin type 2 receptor agonist activity (calcium fluorescence, Fluo-4 AM, FDSS); type: cell-based; details: test compound 3 μM; CHO cells expressing human OX2 receptor; DMSO = 0%, orexin A (human) = 100%
T1 construct: expressed in transfected cells
T1 sequence (O43614 1-444): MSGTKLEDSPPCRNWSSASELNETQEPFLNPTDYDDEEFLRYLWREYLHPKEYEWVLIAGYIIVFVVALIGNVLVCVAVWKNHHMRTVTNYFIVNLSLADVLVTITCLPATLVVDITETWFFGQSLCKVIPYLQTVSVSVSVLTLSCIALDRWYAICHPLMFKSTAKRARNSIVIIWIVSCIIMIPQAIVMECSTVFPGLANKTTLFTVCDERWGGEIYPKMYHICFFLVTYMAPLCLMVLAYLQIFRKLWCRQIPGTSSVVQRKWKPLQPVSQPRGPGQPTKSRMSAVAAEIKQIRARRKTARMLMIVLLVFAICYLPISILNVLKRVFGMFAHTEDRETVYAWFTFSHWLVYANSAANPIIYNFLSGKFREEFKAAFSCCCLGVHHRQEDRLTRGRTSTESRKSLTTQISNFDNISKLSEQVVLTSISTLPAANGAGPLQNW
Procedure, shortened: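 CHO-K1 cells stably expressing human OX2R were loaded with Fluo-4 AM (30 min 37 °C, 30 min RT) in HEPES-buffered HBSS with 0.1% BSA and probenecid. Calcium fluorescence was followed on FDSS for 2 min after compound addition; activity normalised to DMSO (0%) and 10 nM orexin A (100%).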

**Q.** How did the “OX2R agonist activity (3 μM, %)” value turn out when `CS(=O)(=O)N[C@@H]1CN(C(=O)C2CC2c2c(-c3c(F)cccc3F)csc2F)CCC1(F)F` (stereo partly drawn) [Example 378, N-[(3R)-1-{(1R,2R)-2-[4-(2,6-difluorophenyl)-2-fluorothiophen-3-yl]cyclopropane-1-carbonyl}-4,4-difluoropiperidin-3-yl]methanesulfonamide, or N-[(3R)-1-{(1S,2S)-2-[4-(2,6-difluorophenyl)-2-fluorothiophen-3-yl]cyclopropane-1-carbonyl}-4,4-difluoropiperidin-3-yl]methanesulfonamide] was run?
**A.** The value was 103%.

**Q.** For `CCC(NS(C)(=O)=O)[C@@H]1CCN1C(=O)[C@@H]1C[C@@]1(F)c1ccccc1-c1c(F)cccc1F` (stereo partly drawn) [Example 379, N-[(1R)-1-{(2S)-1-[(1S,2S)-2-(2′,6′-difluoro[1,1′-biphenyl]-2-yl)-2-fluorocyclopropane-1-carbonyl]azetidin-2-yl}propyl]methanesulfonamide, or N-[(1S)-1-{(2S)-1-[(1S,2S)-2-(2′,6′-difluoro[1,1′-biphenyl]-2-yl)-2-fluorocyclopropane-1-carbonyl]azetidin-2-yl}propyl]methanesulfonamide], which “OX2R agonist activity (3 μM, %)” value is on record?
**A.** The value was 86%.

**Q.** For `CC[C@@H]1CN(C(=O)[C@@H]2C[C@@]2(F)c2ccccc2-c2c(F)cccc2F)[C@@H]1CNS(C)(=O)=O` [Example 380, N-({(2S,3R)-1-[(1S,2S)-2-(2′,6′-difluoro[1,1′-biphenyl]-2-yl)-2-fluorocyclopropane-1-carbonyl]-3-ethylazetidin-2-yl}methyl)methanesulfonamide], which “OX2R agonist activity (3 μM, %)” value is on record?
**A.** The value was 92%.

**Q.** With `CC[C@@H]1CN(C(=O)[C@@H]2C[C@@]2(F)c2ccccc2-c2c(F)cccc2F)[C@H]1CNS(C)(=O)=O` [Example 381, N-({(2R,3R)-1-[(1S,2S)-2-(2′,6′-difluoro[1,1′-biphenyl]-2-yl)-2-fluorocyclopropane-1-carbonyl]-3-ethylazetidin-2-yl}methyl)methylsulfonamide] as the compound, how does the “OX2R agonist activity (3 μM, %)” value read?
**A.** The value was 90%.

**Q.** For `CCS(=O)(=O)NC[C@@H]1[C@@H](O)CN1C(=O)[C@@H]1C[C@@]1(F)c1ccccc1-c1c(F)cccc1F` [Example 382, N-({(2R,3S)-1-[(1S,2S)-2-(2′,6′-difluoro[1,1′-biphenyl]-2-yl)-2-fluorocyclopropane-1-carbonyl]-3-hydroxyazetidin-2-yl}methyl)ethanesulfonamide], which “OX2R agonist activity (3 μM, %)” value is on record?
**A.** Its value is 96%.

**Q.** `CO[C@@H]1CN(C(=O)[C@@H]2C[C@@]2(F)c2ccccc2-c2c(F)cccc2F)[C@@H]1CNS(C)(=O)=O` [Example 383, N-({(2R,3R)-1-[(1S,2S)-2-(2′,6′-difluoro[1,1′-biphenyl]-2-yl)-2-fluorocyclopropane-1-carbonyl]-3-methoxyazetidin-2-yl}methyl)methanesulfonamide] was tested. Which “OX2R agonist activity (3 μM, %)” value did it give?
**A.** Its value is 72%.

**Q.** With `CS(=O)(=O)NC[C@@H]1[C@H](CO)CN1C(=O)[C@@H]1C[C@@]1(F)c1ccccc1-c1c(F)cccc1F` [Example 384, N-{[(2S,3R)-1-[(1S,2S)-2-(2′,6′-difluoro[1,1′-biphenyl]-2-yl)-2-fluorocyclopropane-1-carbonyl]-3-(hydroxymethyl)azetidin-2-yl]methyl}methanesulfonamide] as the compound, how does the “OX2R agonist activity (3 μM, %)” value read?
**A.** Its value is 99%.

**Q.** For `CS(=O)(=O)N[C@@H](CO)C1CCN1C(=O)[C@@H]1C[C@@]1(F)c1ccccc1-c1c(F)cccc1F` (stereo partly drawn) [Example 385, N-[(1R)-1-{(2R)-1-[(1S,2S)-2-(2′,6′-difluoro[1,1′-biphenyl]-2-yl)-2-fluorocyclopropane-1-carbonyl]azetidin-2-yl}-2-hydroxyethyl]methanesulfonamide, or N-[(1R)-1-{(2S)-1-[(1S,2S)-2-(2′,6′-difluoro[1,1′-biphenyl]-2-yl)-2-fluorocyclopropane-1-carbonyl]azetidin-2-yl}-2-hydroxyethyl]methanesulfonamide], which “OX2R agonist activity (3 μM, %)” value is on record?
**A.** Its value is 95%.

**Q.** `C[C@@H]1CN(C(=O)[C@@H]2C[C@@]2(F)c2ccc(F)cc2-c2c(F)cccc2F)[C@@H]1CNS(C)(=O)=O` [Example 386, N-({(2S,3R)-1-[(1S,2S)-2-fluoro-2-(2′,5,6′-trifluoro[1,1′-biphenyl]-2-yl)cyclopropane-1-carbonyl]-3-methylazetidin-2-yl}methyl)methanesulfonamide] was tested. Which “OX2R agonist activity (3 μM, %)” value did it give?
**A.** The value was 98%.

**Q.** Which “OX2R agonist activity (3 μM, %)” value does the source give for `C[C@H](NS(=O)(=O)C1CC1)[C@@H]1CCN1C(=O)[C@@H]1C[C@@]1(F)c1ccccc1-c1c(F)cccc1F` [Example 387, N-[(1S)-1-{(2S)-1-[(1S,2S)-2-(2′,6′-difluoro[1,1′-biphenyl]-2-yl)-2-fluorocyclopropane-1-carbonyl]azetidin-2-yl}ethyl]cyclopropanesulfonamide] here?
**A.** Its value is 99%.

**Q.** How did the “OX2R agonist activity (3 μM, %)” value turn out when `C[C@H](NS(=O)(=O)C1(C)CC1)[C@@H]1CCN1C(=O)[C@@H]1C[C@@]1(F)c1ccccc1-c1c(F)cccc1F` [Example 388, N-[(1S)-1-{(2S)-1-[(1S,2S)-2-(2′,6′-difluoro[1,1′-biphenyl]-2-yl)-2-fluorocyclopropane-1-carbonyl]azetidin-2-yl}ethyl]-1-methylcyclopropane-1-sulfonamide] was run?
**A.** Its value is 98%.

**Q.** With `CC(C)S(=O)(=O)N[C@@H](C)[C@@H]1CCN1C(=O)[C@@H]1C[C@@]1(F)c1ccccc1-c1c(F)cccc1F` [Example 389, N-[(1S)-1-{(2S)-1-[(1S,2S)-2-(2′,6′-difluoro[1,1′-biphenyl]-2-yl)-2-fluorocyclopropane-1-carbonyl]azetidin-2-yl}ethyl]propane-2-sulfonamide] as the compound, how does the “OX2R agonist activity (3 μM, %)” value read?
**A.** Its value is 97%.

**Q.** With `CS(=O)(=O)NC[C@@H]1[C@H](F)CN1C(=O)[C@@H]1C[C@@]1(F)c1ccccc1-c1c(F)cccc1F` [Example 390, N-({(2R,3R)-1-[(1S,2S)-2-(2′,6′-difluoro[1,1′-biphenyl]-2-yl)-2-fluorocyclopropane-1-carbonyl]-3-fluoroazetidin-2-yl}methyl)methanesulfonamide] as the compound, how does the “OX2R agonist activity (3 μM, %)” value read?
**A.** The value was 98%.

**Q.** With `CS(=O)(=O)NC[C@H]1[C@H](CO)CN1C(=O)[C@@H]1C[C@@]1(F)c1ccccc1-c1c(F)cccc1F` [Example 391, N-{[(2R,3R)-1-[(1S,2S)-2-(2′,6′-difluoro[1,1′-biphenyl]-2-yl)-2-fluorocyclopropane-1-carbonyl]-3-(hydroxymethyl)azetidin-2-yl]methyl}methanesulfonamide] as the compound, how does the “OX2R agonist activity (3 μM, %)” value read?
**A.** The value was 97%.

**Q.** `CC(NS(C)(=O)=O)C12CC(C1)N(C(=O)[C@@H]1C[C@@]1(F)c1ccccc1-c1c(F)cccc1F)C2` (stereo partly drawn) [Example 392, N-[(1R)-1-{2-[(1S,2S)-2-(2′,6′-difluoro[1,1′-biphenyl]-2-yl)-2-fluorocyclopropane-1-carbonyl]-2-azabicyclo[2.1.1]hexan-4-yl}ethyl]methanesulfonamide, or N-[(1S)-1-{2-[(1S,2S)-2-(2′,6′-difluoro[1,1′-biphenyl]-2-yl)-2-fluorocyclopropane-1-carbonyl]-2-azabicyclo[2.1.1]hexan-4-yl}ethyl]methanesulfonamide] was tested. Which “OX2R agonist activity (3 μM, %)” value did it give?
**A.** The value was 68%.

**Q.** For `CS(=O)(=O)NC(C1CC1)[C@@H]1CCN1C(=O)[C@@H]1C[C@@]1(F)c1ccccc1-c1c(F)cccc1F` (stereo partly drawn) [Example 394, N-[(R)-cyclopropyl{(2S)-1-[(1S,2S)-2-(2′,6′-difluoro[1,1′-biphenyl]-2-yl)-2-fluorocyclopropane-1-carbonyl]azetidin-2-yl}methyl]methanesulfonamide, or N-[(S)-cyclopropyl{(2S)-1-[(1S,2S)-2-(2′,6′-difluoro[1,1′-biphenyl]-2-yl)-2-fluorocyclopropane-1-carbonyl]azetidin-2-yl}methyl]methanesulfonamide], which “OX2R agonist activity (3 μM, %)” value is on record?
**A.** The value was 106%.

**Q.** With `C[C@@H]1CN(C(=O)C2CC2(F)c2c(F)cccc2-c2c(F)cccc2F)[C@@H]1CNS(C)(=O)=O` (stereo partly drawn) [Example 395, N-({(2S,3R)-1-[(1R,2R)-2-fluoro-2-(2′,3,6′-trifluoro[1,1′-biphenyl]-2-yl)cyclopropane-1-carbonyl]-3-methylazetidin-2-yl}methyl)methanesulfonamide, or N-({(2S,3R)-1-[(1S,2S)-2-fluoro-2-(2′,3,6′-trifluoro[1,1′-biphenyl]-2-yl)cyclopropane-1-carbonyl]-3-methylazetidin-2-yl}methyl)methanesulfonamide] as the compound, how does the “OX2R agonist activity (3 μM, %)” value read?
**A.** The value was 99%.

**Q.** Which “OX2R agonist activity (3 μM, %)” value does the source give for `Cc1ccc(C2(F)CC2C(=O)N2C[C@@H](C)[C@H]2CNS(C)(=O)=O)c(-c2c(F)cccc2F)c1` (stereo partly drawn) [Example 396, N-({(2S,3R)-1-[(1R,2R)-2-(2′,6′-difluoro-5-methyl[1,1′-biphenyl]-2-yl)-2-fluorocyclopropane-1-carbonyl]-3-methylazetidin-2-yl}methyl)methanesulfonamide, or N-({(2S,3R)-1-[(1S,2S)-2-(2′,6′-difluoro-5-methyl[1,1′-biphenyl]-2-yl)-2-fluorocyclopropane-1-carbonyl]-3-methylazetidin-2-yl}methyl)methanesulfonamide] here?
**A.** Its value is 104%.

**Q.** How did the “OX2R agonist activity (3 μM, %)” value turn out when `COC[C@@H]1CN(C(=O)[C@@H]2C[C@@]2(F)c2ccccc2-c2c(F)cccc2F)[C@@H]1CNS(C)(=O)=O` [Example 397, N-{[(2S,3R)-1-[(1S,2S)-2-(2′,6′-difluoro[1,1′-biphenyl]-2-yl)-2-fluorocyclopropane-1-carbonyl]-3-(methoxymethyl)azetidin-2-yl]methyl}methanesulfonamide] was run?
**A.** The value was 84%.
